One data set addresses CYP3A4 (Homo sapiens, UniProt P08684). The experiment in a line: Cytochrome P450 3A4 inhibition assay (P450-Glo, Luciferin-IPA). To be noted: recombinant human CYP3A4 Supersomes (+ oxidoreductase + b5), pH 7.4, probe Luciferin-IPA. How it is done: The CYP3A4 inhibition assay was performed using 96-well white plates (Greiner Bio-One) at a pH of 7.4. […] Stock solutions were further diluted to a final concentration of 20 µM using water (HPLC grade). The luciferin IPA stock solution (3 mM) was diluted to a final concentration of 0.3 mM using water (HPLC grade). The CYP3A4 reaction mixture was prepared by mixing water (HPLC grade) with potassium phosphate buffer (1 M), luciferin IPA (0.3 mM) and CYP3A4 membrane (1 pmol/µL). The control reaction mixture was prepared using water (HPLC grade), potassium phosphate buffer (1 M), luciferin IPA (0.3 mM) and membrane without CYP activity (1 pmol/µL). Solutions A and B of the NADPH regeneration system were mixed and HPLC grade water was added. The reconstituted luciferin detection reagent was prepared by mixing the reconstituted buffer with esterase with the luciferin detection reagent. Then, solutions of test compounds and standard were added to the wells of the 96-well white plate; each was tested in triplicate. The CYP3A4 reaction mixture was added to each well and the plate was incubated for 10 min at room temperature. After that, the NADPH regeneration system was added, inducing the reaction followed by an incubation time of 10 min at ambient temperature. By adding the reconstituted luciferin detection reagent, the reaction was terminated and a luminescent signal was formed. Luminescence was measured by a SpectraMax M3 UV plate reader (Molecular Devices). The relative light units (RLU) were received from a calibration curve with beetle luciferin. […] The CYP3A4 inhibition (%) was calculated from the RLU.

Data set [1] is described as follows: In vitro cytotoxicity with L-6 cells (resazurin). The class given is cell-based, rat. The settings on record: rat. On the procedure: Serial drug dilutions of 11 3-fold dilution steps covering a range from 100 to 0.002 μg/mL were prepared. After 70 h of incubation, the plates were inspected under an inverted microscope to assure the growth of the controls and sterile conditions. […] The plates were read with a Spectramax Gemini XS microplate fluorometer (Molecular Devices Cooperation, Sunnyvale, CA, USA) using an excitation wavelength of 536 nm and an emission wavelength of 588 nm. The IC50 values were calculated by linear regression from the sigmoidal dose inhibition curves using SoftmaxPro software Version 8.2.1 (Molecular Devices Cooperation, Sunnyvale, CA, USA). Podophyllotoxin (Sigma P4405) was used as control.
(Alamar Blue is a resazurin reagent that responds to reducing activity.)

A further data set concerns P. falciparum NF54. Kind of data set: In vitro microplate assay against P. falciparum (3H-hypoxanthine incorporation). The class given is cell-based, Plasmodium falciparum. The settings on record: for S.I. = IC50 (Cyt.)/IC50 (P.f.NF54): L-6 cells vs P.f. NF54; for IC50: average of four determinations, read-out: P.f. NF54 IC50. How it is done:
In vitro activity against the erythrocytic stages of P. falciparum was determined using a ^3H-hypoxanthine incorporation assay, using the drug sensitive NF54 strain [37]. […] The 96-well plates were incubated in a humidified atmosphere at 37 °C, 4% CO2, 3% O2 and 93% N2. After 48 h, 0.05 mL of ^3H-hypoxanthine (=0.5 µCi) was added to each well of the plate. The plates were incubated for a further 24 h under the same conditions. The plates were then harvested with a Betaplate cell harvester (Wallac, Zurich, Switzerland). The red blood cells were transferred onto a glass fiber filter and washed with distilled water. The dried filters were inserted into a plastic foil with 10 mL of scintillation fluid and counted in a Betaplate liquid scintillation counter (Wallac, Zurich, Switzerland). The IC50 values were calculated from sigmoidal inhibition curves by linear regression using Microsoft Excel. Chloroquine (Sigma C6628) was used as control.

The mark [2] stands for this setting: Plasmodium falciparum, NF54, chloroquine-sensitive strain NF54.
Where [3] appears, read: chloroquine-sensitive strain NF54.

Results on 20 compounds are retold here after PMC10572347, “Structure–Activity Relationships and Antiplasmodial Potencies of Novel 3,4-Disubstituted 1,2,5-Oxadiazoles” (International Journal of Molecular Sciences, 2023).

By inhibition is commonly meant the drop in the measured response relative to a control, in per cent. Usually melting point stands for the temperature of the solid-liquid transition. One may read the IC50 as the midpoint of a concentration-inhibition curve.

Where two headings read alike, the source gives them in different places.

Sequence of CYP3A4 (P08684 2-503 limits assumed): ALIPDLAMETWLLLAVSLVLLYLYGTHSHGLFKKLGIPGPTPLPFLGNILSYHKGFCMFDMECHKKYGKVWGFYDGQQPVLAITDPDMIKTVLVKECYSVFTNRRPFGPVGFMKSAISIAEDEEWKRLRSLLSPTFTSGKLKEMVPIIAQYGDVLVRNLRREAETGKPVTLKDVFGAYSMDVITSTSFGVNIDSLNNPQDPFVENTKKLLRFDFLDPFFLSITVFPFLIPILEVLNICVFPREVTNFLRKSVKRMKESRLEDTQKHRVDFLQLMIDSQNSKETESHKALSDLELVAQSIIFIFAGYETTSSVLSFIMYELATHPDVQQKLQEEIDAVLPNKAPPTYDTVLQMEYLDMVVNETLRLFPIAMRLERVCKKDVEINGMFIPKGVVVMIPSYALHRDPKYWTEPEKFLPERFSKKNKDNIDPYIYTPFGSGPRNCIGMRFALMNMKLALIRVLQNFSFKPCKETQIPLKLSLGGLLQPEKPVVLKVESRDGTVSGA

The compound `O=C(Nc1nonc1-c1ccc([N+](=O)[O-])cc1)c1ccccc1` [Compound 37, N-[4-(4-Nitrophenyl)-1,2,5-oxadiazol-3-yl]benzamide] registered a melting point of 208 °C. Besides, the inhibition at 10 min, 20 µM at CYP3A4 is 46%. The half-inhibitory concentration (IC50) at 72 h in data set [1] amounted to 12.2 µM. Moreover, the “S.I. = IC50 (Cyt.)/IC50 (P.f.NF54)” value in the data set with P. falciparum NF54 was found to be 6.694. Further, the IC50 in the data set on P. falciparum NF54 (setting [2]) was determined as 1.81 µM.
Consider `Cc1cccc(C(=O)Nc2nonc2-c2ccc([N+](=O)[O-])cc2)c1` [Compound 38, 3-Methyl-N-[4-(4-nitrophenyl)-1,2,5-oxadiazol-3-yl]benzamide], for which, on CYP3A4, the inhibition at 10 min, 20 µM was 68%. Moreover, the IC50 at 72 h in data set [1] came to 3.47 µM. Also, the half-maximal inhibitory concentration (IC50) with P. falciparum NF54 (setting [2]) worked out at 0.99 µM.
Take `O=C(Nc1nonc1-c1ccc([N+](=O)[O-])cc1)c1cccc(F)c1` [Compound 39, 3-Fluoro-N-[4-(4-nitrophenyl)-1,2,5-oxadiazol-3-yl]benzamide]: the inhibition at 10 min, 20 µM on CYP3A4 came out at 43%. In addition, in data set [1], the IC50 at 72 h was 4.31 µM. Moreover, the “S.I. = IC50 (Cyt.)/IC50 (P.f.NF54)” value in the data set with P. falciparum NF54 is reported as 0.809. Moreover, the half-inhibitory concentration (IC50) in the data set on P. falciparum NF54 (setting [2]) stood at 5.33 µM.
Compound `O=C(Nc1nonc1-c1ccc([N+](=O)[O-])cc1)c1cccc(C(F)(F)F)c1` [Compound 40, N-[4-(4-Nitrophenyl)-1,2,5-oxadiazol-3-yl]-3-(trifluoromethyl)benzamide] yielded a melting point of 147 °C. For the same compound, the inhibition at 10 min, 20 µM on CYP3A4 is 82%. In data set [1], the half-maximal inhibitory concentration (IC50) at 72 h is 0.936 µM. In addition, in the data set with P. falciparum NF54, the “S.I. = IC50 (Cyt.)/IC50 (P.f.NF54)” value amounted to 0.473. Moreover, the IC50 in the data set on P. falciparum NF54 (setting [2]) was determined as 1.98 µM.
`O=C(Nc1nonc1-c1cccc([N+](=O)[O-])c1)c1ccccc1` [Compound 41, N-[4-(3-Nitrophenyl)-1,2,5-oxadiazol-3-yl]benzamide] displayed a melting point of 179 °C. For the same compound, the inhibition at 10 min, 20 µM on CYP3A4 is 82%. The same compound returned an IC50 at 72 h in data set [1] of 6.07 µM. The “S.I. = IC50 (Cyt.)/IC50 (P.f.NF54)” value in the data set on P. falciparum NF54 was found to be 0.666. Also, in the data set with P. falciparum NF54 (setting [2]), the concentration for half-maximal inhibition (IC50) came out at 9.11 µM.
On the same counts, the results for `Cc1cccc(C(=O)Nc2nonc2-c2cccc([N+](=O)[O-])c2)c1` [Compound 42, 3-Methyl-N-[4-(3-nitrophenyl)-1,2,5-oxadiazol-3-yl]benzamide] are 158 °C, 87%, 5.32 µM, 0.464 and 11.5 µM.
On to `O=C(Nc1nonc1-c1cccc([N+](=O)[O-])c1)c1cccc(C(F)(F)F)c1` [Compound 44, N-[4-(3-Nitrophenyl)-1,2,5-oxadiazol-3-yl]-3-(trifluoromethyl)benzamide], for which, at CYP3A4, the inhibition at 10 min, 20 µM was 94%. In data set [1], this compound registered a half-inhibitory concentration (IC50) at 72 h of 1.71 µM. Also, the “S.I. = IC50 (Cyt.)/IC50 (P.f.NF54)” value in the data set on P. falciparum NF54 was 0.198. Also, in the data set on P. falciparum NF54 (setting [2]), the concentration for half-maximal inhibition (IC50) came to 8.64 µM.
Compound `O=C(Nc1nonc1-c1ccc(Cl)cc1)c1cccc(F)c1` [Compound 46, N-[4-(4-Chlorophenyl)-1,2,5-oxadiazol-3-yl]-3-fluorobenzamide] displayed a melting point of 180 °C. The same compound showed a 50% inhibitory concentration (IC50) at 72 h in data set [1] of 11.7 µM. In addition, the “S.I. = IC50 (Cyt.)/IC50 (P.f.NF54)” value in the data set on P. falciparum NF54 is given as 1.155. In addition, the IC50 in the data set on P. falciparum NF54 (setting [2]) was determined as 10.1 µM.
In data set [1], `O=C(Nc1nonc1-c1ccc(Cl)cc1)c1cccc(C(F)(F)F)c1` [Compound 48, N-[4-(4-Chlorophenyl)-1,2,5-oxadiazol-3-yl]-3-(trifluoromethyl)benzamide] yielded an IC50 at 72 h of 5.06 µM. Besides, in the data set on P. falciparum NF54, the “S.I. = IC50 (Cyt.)/IC50 (P.f.NF54)” value is 0.599. For the same compound, the half-inhibitory concentration (IC50) with P. falciparum NF54 (setting [2]) is 8.44 to 17.7 µM; in the data set with P. falciparum NF54 (setting [3]) it was 8.44 µM.
For the compound `Cc1cccc(C(=O)Nc2nonc2-c2ccc(F)cc2)c1` [Compound 49, N-[4-(4-Fluorophenyl)-1,2,5-oxadiazol-3-yl]-3-methylbenzamide], the inhibition at 10 min, 20 µM at CYP3A4 came out at 84%. The IC50 at 72 h in data set [1] came to 35.1 µM. Besides, in the data set with P. falciparum NF54, the “S.I. = IC50 (Cyt.)/IC50 (P.f.NF54)” value worked out at 4.328.
In turn, `COc1ccc(C(=O)Nc2nonc2-c2ccc([N+](=O)[O-])cc2)cc1Cl` [Compound 53, 3-Chloro-4-methoxy-N-[4-(4-nitrophenyl)-1,2,5-oxadiazol-3-yl]benzamide] returned a melting point of 261 °C. For the same compound, the 50% inhibitory concentration (IC50) at 72 h in data set [1] is 3.35 µM. Further, the half-inhibitory concentration (IC50) in the data set on P. falciparum NF54 (setting [2]) was found to be 0.323 µM.
In turn, `COc1ccc(C(=O)Nc2nonc2-c2cccc([N+](=O)[O-])c2)cc1Cl` [Compound 54, 3-Chloro-4-methoxy-N-[4-(3-nitrophenyl)-1,2,5-oxadiazol-3-yl]benzamide] showed a melting point of 248 °C. Moreover, 5.52 µM corresponded to half-maximal inhibition in data set [1] (IC50 at 72 h). In the data set on P. falciparum NF54, the “S.I. = IC50 (Cyt.)/IC50 (P.f.NF54)” value turned out to be 0.932. Besides, in the data set on P. falciparum NF54 (setting [2]), the IC50 is 5.92 µM.
For the compound `Nc1ccc(-c2nonc2NC(=O)c2ccccc2)cc1` [Compound 55, N-[4-(4-Aminophenyl)-1,2,5-oxadiazol-3-yl]benzamide], the melting point came to 169 °C. Besides, the IC50 at 72 h in data set [1] came out at 123 µM. In the data set with P. falciparum NF54, the “S.I. = IC50 (Cyt.)/IC50 (P.f.NF54)” value was found to be 16.62. Besides, in the data set with P. falciparum NF54 (setting [2]), the half-inhibitory concentration (IC50) amounted to 7.42 µM.
On the same counts, the results for `Cc1cccc(C(=O)Nc2nonc2-c2ccc(N)cc2)c1` [Compound 56, N-[4-(4-Aminophenyl)-1,2,5-oxadiazol-3-yl]-3-methylbenzamide] are 159 °C, 107 µM, 15.70 and 6.83 µM.
The compound `Nc1ccc(-c2nonc2NC(=O)c2cccc(F)c2)cc1` [Compound 57, N-[4-(4-Aminophenyl)-1,2,5-oxadiazol-3-yl]-3-fluorobenzamide] showed a melting point of 189 °C. The compound further returned a concentration for half-maximal inhibition (IC50) at 72 h in data set [1] of 198 µM. Moreover, in the data set with P. falciparum NF54, the “S.I. = IC50 (Cyt.)/IC50 (P.f.NF54)” value came out at 18.90. Besides, the concentration for half-maximal inhibition (IC50) in the data set on P. falciparum NF54 (setting [2]) stood at 10.5 µM.
On the same counts, the results for `Nc1ccc(-c2nonc2NC(=O)c2cccc(C(F)(F)F)c2)cc1` [Compound 58, N-[4-(4-Aminophenyl)-1,2,5-oxadiazol-3-yl]-3-(trifluoromethyl)benzamide] are 154 °C, 32.9 µM, 3.548 and 9.26 µM.
Taken in the same sequence, the figures for `COc1ccc(C(=O)Nc2nonc2-c2ccc(N)cc2)cc1Cl` [Compound 59, N-[4-(4-Aminophenyl)-1,2,5-oxadiazol-3-yl]-3-chloro-4-methoxybenzamide] were 250 °C, 98.9 µM, 31.54 and 3.14 µM.
For the compound `Nc1cccc(-c2nonc2NC(=O)c2ccccc2)c1` [Compound 60, N-[4-(3-Aminophenyl)-1,2,5-oxadiazol-3-yl]benzamide], the melting point was found to be 178 °C. This compound returned an IC50 at 72 h in data set [1] of 217 µM. Also, the “S.I. = IC50 (Cyt.)/IC50 (P.f.NF54)” value in the data set on P. falciparum NF54 is 4.039.
Regarding `Nc1cccc(-c2nonc2NC(=O)c2cccc(F)c2)c1` [Compound 62, N-[4-(3-Aminophenyl)-1,2,5-oxadiazol-3-yl]-3-fluorobenzamide], the melting point came to 163 °C. The same compound gave an IC50 at 72 h in data set [1] of 195 µM. Moreover, the “S.I. = IC50 (Cyt.)/IC50 (P.f.NF54)” value in the data set with P. falciparum NF54 is reported as 6.107. In the data set on P. falciparum NF54 (setting [3]), the IC50 was determined as 32 µM.
For `Nc1cccc(-c2nonc2NC(=O)c2cccc(C(F)(F)F)c2)c1` [Compound 63, N-[4-(3-Aminophenyl)-1,2,5-oxadiazol-3-yl]-3-(trifluoromethyl)benzamide], in data set [1], the IC50 at 72 h amounted to 21.2 µM. In addition, the “S.I. = IC50 (Cyt.)/IC50 (P.f.NF54)” value in the data set on P. falciparum NF54 was determined as 1.201.
